Legend:
[1] = Pharmacokinetics in dogs, 10 min IV infusion; assay type: in vivo, male beagle dogs
Protocol: (§1) Plasma samples from pharmacokinetic/pharmacodynamic studies were analyzed for the concentration of Compound (A) using an LC/MS/MS (liquid chromatography/mass spectrometry/mass spectrometry) assay with a standard curve range of 5 to 20,000 ng/mL (10 to 40,000 nM) for studies in mice and 2 to 1000 ng/mL (4 to 2000 nM) for studies in rats and dogs. In pharmacodynamic studies, concentrations of Compound (A) were determined using the LC/MS/MS assay with a standard curve range of 5 to 20,000 ng/mL (10 to 40,000 nM) in mouse plasma. The LC/MS/MS assay was also used to determine the concentrations of Compound (B), a degradation product of Compound (A) formed in the stock/dosing solution or in vivo, in rat and dog plasma. The structure of Compound (B) is: [drawing 9]
Male beagle dogs (n=3) were administered a 10 min IV infusion of 0.5 mg/kg of Compound (A) (given as a 10% ethanol solution). Plasma samples were taken over a period of 32 h after dose to determine the plasma concentrations of Compound (A). […] The T-HALF was estimated to be approximately 24 h.

[2] = Pharmacokinetics in rats (intraarterial, oral, intraduodenal); assay type: in vivo, male Sprague Dawley rats
Protocol: as §1
Compound (A) was given as a single intraarterial (2 mg/kg; 10 min infusion), oral (8 mg/kg), and intraduodenal (8 mg/kg) dose to fasted male Sprague Dawley rats (n×3-6 per group). All dosing solutions were prepared in 20% ethanol. Plasma samples were obtained over a period of 24 h after dosing and the concentration of Compound (A) was determined using the LC/MS/MS assay.

CYP1A2 = target: T1, CYP1A2 (Homo sapiens, UniProt P05177); test: Inhibition of recombinant human CYP1A2 (deethylation of 3-cyano-7-ethoxycoumarin); assay type: in vitro ADME; conditions: recombinant human CYP isoform
T1 sequence (P05177 1-516): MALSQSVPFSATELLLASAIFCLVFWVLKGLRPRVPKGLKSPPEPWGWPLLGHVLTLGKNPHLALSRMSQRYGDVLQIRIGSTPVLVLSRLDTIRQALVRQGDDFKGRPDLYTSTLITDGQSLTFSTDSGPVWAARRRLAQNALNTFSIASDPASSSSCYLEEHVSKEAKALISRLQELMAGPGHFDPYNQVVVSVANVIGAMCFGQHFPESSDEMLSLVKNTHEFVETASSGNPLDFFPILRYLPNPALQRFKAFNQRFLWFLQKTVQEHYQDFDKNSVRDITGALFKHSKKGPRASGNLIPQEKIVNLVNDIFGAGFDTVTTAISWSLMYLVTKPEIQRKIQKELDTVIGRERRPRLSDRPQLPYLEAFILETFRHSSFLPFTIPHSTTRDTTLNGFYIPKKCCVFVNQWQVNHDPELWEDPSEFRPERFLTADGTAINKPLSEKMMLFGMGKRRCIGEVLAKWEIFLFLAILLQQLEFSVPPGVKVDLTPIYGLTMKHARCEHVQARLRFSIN
Protocol: The ability of Compound (A) to inhibit the major human cytochrome P450s (CYPs) responsible for the metabolism of drugs was evaluated in vitro using recombinant human CYP isoforms. IC50 values for inhibition of deethylation of 3-cyano-7-ethoxycoumarin (CYP1A2, CYP2C9, CYP2C19, and CYP2D6) and for inhibition of dealkylation of benzoyl-resorufin (CYP3A4) were determined.

[3] = Stability of aqueous solution of Compound (A) (t95); assay type: physicochemical; conditions: 37° C.
Protocol: Certain epothilones including the preferred epothilone, Compound (A), are unstable in acidic aqueous environments and decompose, presumably by an acid catalyzed hydrolytic opening of the epoxide ring. For example, the time for 5% drug loss (t95) at 37° C. for an aqueous solution of Compound (A) is approximately 38 minutes at pH 7.4 but only about 0.2 minutes at pH 2.5. Thus, when epothilones of Formula (Ia) or (Ib), or a pharmaceutically acceptable salt, solvate, clathrate, hydrate, or prodrug thereof, are orally administered they decompose in the stomach of the patient such that they are either minimally absorbed or not absorbed by the gastrointestinal tract.

For `C/C(=C\c1csc(C)n1)[C@@H]1C[C@@H]2O[C@]2(C)CCC[C@H](C)[C@H](O)[C@@H](C)C(=O)C(C)(C)[C@@H](O)CC(=O)N1` (relative stereo) [Compound (A), [1S-[1R*,3R*(E),7R*,10S*,11R*,12R*,16S*]]-7,11-dihydroxy 8,8,10,12,16-pentamethyl-3-[1-methyl-2-(2-methyl-4-thiazolyl)ethenyl-4-aza-17-oxobicyclo[14.1.0]heptadecane-5,9-dione], the “CLT (mean)” value ([1]; 10 min IV infusion 0.5 mg/kg) was 17.3 mL/min/kg, the T-HALF ([1]; IV 0.5 mg/kg) was “approximately 24 h” and the “mean VSS” value ([1]; IV 0.5 mg/kg) was 25.2 L/kg. The “CLT as percent of liver blood flow” value ([1]; IV 0.5 mg/kg, liver blood flow 30.9 mL/min/kg) was “about 56%”, the “AUC, mean (SD)” value ([1]; preliminary IV pharmacokinetic study, 0.5 mg/kg) was 483 (34) h.ng/mL and the “CLT (mean)” value ([2]; intraarterial 2 mg/kg) was 56 mL/min/kg. The “VSS (mean)” value ([2]; intraarterial 2 mg/kg) was 23 L/kg, the “mean T-HALF” value ([2]; intraarterial 2 mg/kg) was 9.6 h and the “CLT as percent of liver blood flow” value ([2]; intraarterial 2 mg/kg, liver blood flow 56 mL/min/kg) was 100%. For the same compound, the Tmax ([2]; intraduodenal 8 mg/kg) was 4.8 min, the absolute oral bioavailability ([2]; intraduodenal 8 mg/kg) was 27% and the “mean CMAX” value ([2]; intraduodenal 8 mg/kg) was 642 ng/mL. The Tmax ([2]; oral 8 mg/kg) was 10.2 min, the absolute oral bioavailability ([2]; oral 8 mg/kg) was 7.5% and the “mean CMAX” value ([2]; oral 8 mg/kg) was 228 ng/mL. The “inhibition of CYP1A2” value (CYP1A2) was “did not inhibit”, the “time for 5% drug loss (t95)” value ([3]; pH 2.5) was “about 0.2 minutes” and the “time for 5% drug loss (t95)” value ([3]; pH 7.4) was “approximately 38 minutes”.
